From ChEMBL document CHEMBL1201862, “PubChem BioAssay data set” (2004)
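Test compounds were applied to cells in 96-well plates for 48 hours at 5 doses. Here, GI50 denotes the concentration required for 50% inhibition of growth.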 The source made the active and inactive calls. Rule as the data show it: active = GI50 up to about 1.1 µM and inactive = higher.

What was measured:
Assay in all cases: NCI tumour cell line growth inhibition, 48 h
786-0 = tested on: 786-0
A498 = tested on: A498
A549 = tested on: A549
ACHN = tested on: ACHN
CAKI-1 = tested on: CAKI-1
CCRF-CEM = tested on: CCRF-CEM
COLO 205 = tested on: COLO 205
DLD-1 = tested on: DLD-1
DMS-114 = tested on: DMS-114
DMS-273 = tested on: DMS-273
EKVX = tested on: EKVX
HCC 2998 = tested on: HCC 2998
HCT-116 = tested on: HCT-116
HCT-15 = tested on: HCT-15
HL-60 = tested on: HL-60
HOP-18 = tested on: HOP-18
HOP-62 = tested on: HOP-62
HOP-92 = tested on: HOP-92
HT-29 = tested on: HT-29
IGROV-1 = tested on: IGROV-1
K562 = tested on: K562
KM-20L2 = tested on: KM-20L2
KM12 = tested on: KM12
LOX IMVI = tested on: LOX IMVI
LXFL 529 = tested on: LXFL 529
M14 = tested on: M14
M19-MEL = tested on: M19-MEL
MOLT-4 = tested on: MOLT-4
Malme-3M = tested on: Malme-3M
NCI-H226 = tested on: NCI-H226
NCI-H23 = tested on: NCI-H23
NCI-H460 = tested on: NCI-H460
NCI-H522 = tested on: NCI-H522
OVCAR-3 = tested on: OVCAR-3
OVCAR-4 = tested on: OVCAR-4
OVCAR-5 = tested on: OVCAR-5
OVCAR-8 = tested on: OVCAR-8
RXF 393 = tested on: RXF 393
SF-268 = tested on: SF-268
SF-295 = tested on: SF-295
SF-539 = tested on: SF-539
SK-MEL-28 = tested on: SK-MEL-28
SK-MEL-2 = tested on: SK-MEL-2
SK-MEL-5 = tested on: SK-MEL-5
SK-OV-3 = tested on: SK-OV-3
SN12C = tested on: SN12C
SNB-19 = tested on: SNB-19
SNB-75 = tested on: SNB-75
SNB-78 = tested on: SNB-78
SW-620 = tested on: SW-620
TK-10 = tested on: TK-10
U-251 = tested on: U-251
UACC-257 = tested on: UACC-257
UACC-62 = tested on: UACC-62
UO-31 = tested on: UO-31
XF498 = tested on: XF498
MCF7 = tested on: MCF7
NCI/ADR-RES = tested on: NCI/ADR-RES
RPMI-8226 = tested on: RPMI-8226

In the case of `CN(C)CCOc1cccc2c1C(=O)c1ccccc1C2=O`, the GI50 (786-0) was 17.6 µM (inactive), the GI50 (A498) was 18.1 µM (inactive) and the GI50 (A549) was 13.7 µM (inactive). For the same compound, the GI50 (ACHN) was 12 µM (inactive), the GI50 (CAKI-1) was 14.7 µM (inactive) and the GI50 (CCRF-CEM) was 11.4 µM (inactive). For the same compound, the GI50 (COLO 205) was 4.38 µM (inactive), the GI50 (DLD-1) was 8.34 µM (inactive) and the GI50 (DMS-114) was 10.4 µM (inactive). The GI50 (DMS-273) was 10.1 µM (inactive), the GI50 (EKVX) was 18.4 µM (inactive) and the GI50 (HCC 2998) was 13.9 µM (inactive). The GI50 (HCT-116) was 4.58 µM (inactive), the GI50 (HCT-15) was 12.2 µM and the GI50 (HL-60) was 12.1 µM (inactive). For the same compound, the GI50 (HOP-18) was 16 µM (inactive), the GI50 (HOP-62) was 13.6 µM (inactive) and the GI50 (HOP-92) was 11.8 µM (inactive). For the same compound, the GI50 (HT-29) was 6.37 µM (inactive), the GI50 (IGROV-1) was 16.5 µM (inactive) and the GI50 (K562) was 11.1 µM (inactive). For the same compound, the GI50 (KM-20L2) was 13.9 µM (inactive), the GI50 (KM12) was 10.8 µM (inactive) and the GI50 (LOX IMVI) was 5.75 µM (inactive). The GI50 (LXFL 529) was 12.1 µM (inactive), the GI50 (M14) was 13.5 µM (inactive) and the GI50 (M19-MEL) was 5.65 µM (inactive). The GI50 (MOLT-4) was 3.45 µM (inactive), the GI50 (Malme-3M) was 13.6 µM (inactive) and the GI50 (NCI-H226) was 9.95 µM (inactive). For the same compound, the GI50 (NCI-H23) was 11.8 µM (inactive), the GI50 (NCI-H460) was 5.36 µM (inactive) and the GI50 (NCI-H522) was 6.52 µM (inactive). For the same compound, the GI50 (OVCAR-3) was 17.9 µM (inactive), the GI50 (OVCAR-4) was 6.14 µM (inactive) and the GI50 (OVCAR-5) was 16.5 µM (inactive). The GI50 (OVCAR-8) was 9.48 µM (inactive), the GI50 (RXF 393) was 13.8 µM (inactive) and the GI50 (SF-268) was 9.79 µM (inactive). The GI50 (SF-295) was 15.1 µM (inactive), the GI50 (SF-539) was 10.4 µM (inactive) and the GI50 (SK-MEL-28) was 15.3 µM (inactive). The GI50 (SK-MEL-2) was 14.2 µM (inactive), the GI50 (SK-MEL-5) was 12.8 µM (inactive) and the GI50 (SK-OV-3) was 20.4 µM (inactive). For the same compound, the GI50 (SN12C) was 9.06 µM (inactive), the GI50 (SNB-19) was 18.2 µM (inactive) and the GI50 (SNB-75) was 14.9 µM (inactive). For the same compound, the GI50 (SNB-78) was 13.6 µM (inactive), the GI50 (SW-620) was 8.32 µM (inactive) and the GI50 (TK-10) was 17.3 µM (inactive). For the same compound, the GI50 (U-251) was 17.4 µM (inactive), the GI50 (UACC-257) was 13.1 µM (inactive) and the GI50 (UACC-62) was 16.3 µM (inactive). The GI50 (UO-31) was 4.52 µM (inactive) and the GI50 (XF498) was 18.7 µM (inactive).

In the case of `O=C(O)CCC(NC(=O)c1ccc(Nc2nc3cc(C(F)(F)F)ccc3nc2-c2ccccc2)cc1)C(=O)O` (centres undefined), the GI50 (A498) was > 100 µM (inactive), the GI50 (A549) was > 86.1 µM (inactive) and the GI50 (CCRF-CEM) was 97.3 µM (inactive). For the same compound, the GI50 (COLO 205) was > 55.7 µM (inactive), the GI50 (DLD-1) was > 76 µM (inactive) and the GI50 (DMS-114) was > 100 µM (inactive). For the same compound, the GI50 (DMS-273) was 24.6 µM (inactive), the GI50 (EKVX) was > 100 µM (inactive) and the GI50 (HCC 2998) was 66.5 µM (inactive). The GI50 (HCT-116) was 71 µM (inactive), the GI50 (HCT-15) was 60.3 µM and the GI50 (HL-60) was 84.3 µM (inactive). For the same compound, the GI50 (HOP-18) was > 100 µM (inactive), the GI50 (HOP-62) was > 74.6 µM (inactive) and the GI50 (HOP-92) was > 52.6 µM (inactive). The GI50 (HT-29) was 18.8 µM (inactive), the GI50 (IGROV-1) was > 100 µM (inactive) and the GI50 (K562) was 34.4 µM (inactive). For the same compound, the GI50 (KM-20L2) was 24.3 µM (inactive), the GI50 (KM12) was 45.9 µM (inactive) and the GI50 (LOX IMVI) was 44.9 µM (inactive). The GI50 (M19-MEL) was > 100 µM (inactive), the GI50 (MCF7) was 64.9 µM (inactive) and the GI50 (MOLT-4) was 44.6 µM (inactive). The GI50 (Malme-3M) was > 100 µM (inactive), the GI50 (NCI-H226) was > 100 µM (inactive) and the GI50 (NCI-H23) was > 100 µM (inactive). The GI50 (NCI-H460) was 43.3 µM (inactive), the GI50 (NCI-H522) was 35.6 µM (inactive) and the GI50 (NCI/ADR-RES) was 62.1 µM (inactive). For the same compound, the GI50 (OVCAR-3) was > 100 µM (inactive), the GI50 (OVCAR-4) was 31.3 µM (inactive) and the GI50 (OVCAR-5) was 63.5 µM (inactive). The GI50 (OVCAR-8) was > 100 µM (inactive), the GI50 (RPMI-8226) was > 63.1 µM (inactive) and the GI50 (RXF 393) was 26.5 µM (inactive). For the same compound, the GI50 (SF-268) was > 100 µM (inactive), the GI50 (SF-295) was 20.4 µM (inactive) and the GI50 (SF-539) was > 84.7 µM (inactive). For the same compound, the GI50 (SK-MEL-28) was > 100 µM (inactive), the GI50 (SK-MEL-2) was > 100 µM (inactive) and the GI50 (SK-MEL-5) was > 100 µM (inactive). For the same compound, the GI50 (SK-OV-3) was > 100 µM (inactive), the GI50 (SN12C) was > 100 µM (inactive) and the GI50 (SNB-19) was > 100 µM (inactive). For the same compound, the GI50 (SNB-75) was > 79.6 µM (inactive), the GI50 (SNB-78) was > 95.9 µM (inactive) and the GI50 (SW-620) was 68.1 µM (inactive). For the same compound, the GI50 (U-251) was 67.1 µM (inactive), the GI50 (UACC-257) was > 100 µM (inactive) and the GI50 (UACC-62) was > 60.1 µM (inactive). The GI50 (UO-31) was > 94.6 µM (inactive) and the GI50 (XF498) was > 78.2 µM (inactive).
